Patent US10597388B2, “Pyridazinone herbicides” (FMC CORPORATION, priority 2014, dated 2020)

Experiments:
Type in all cases: in vivo
[1] = tested on: oat, wild (wild oat, Avena fatua); assay: Test C greenhouse herbicide test, postemergence
Outline: (§1)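 Seedlings are raised in pots of peat moss–vermiculite medium with starter nutrients, then receive postemergence test chemical at the 1- to 4-leaf stage. They are kept in the greenhouse 13 to 15 d and scored visually versus controls, 0 meaning no effect and 100 complete control.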

[2] = tested on: chickweed (common chickweed, Stellaria media); assay: Test C greenhouse herbicide test, postemergence
Outline: as §1

[3] = tested on: kochia (Kochia scoparia); assay: Test C greenhouse herbicide test, postemergence
Outline: as §1

[4] = tested on: barnyardgrass (Echinochloa crus-galli); assay: Test A greenhouse herbicide test, pre- and postemergence
Outline: (§2)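 Seeds in loam–sand blend received a preemergence directed soil spray; plants at 2–10 cm, one- to two-leaf stage, received postemergence sprays. Compounds in a non-phytotoxic solvent with surfactant. After about 10 d in a greenhouse, injury rated visually versus untreated controls on a 0–100 scale (100 = complete control).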

[5] = tested on: corn (Zea mays); assay: as above; conditions: Postemergence; for Corn plant response rating: 0 to 100 scale, 0 is no effect, 100 is complete control
Outline: as §2

[6] = tested on: wheat (Triticum aestivum); assay: as above; conditions: Postemergence; for Wheat plant response rating: 0 to 100 scale, 0 is no effect, 100 is complete control
Outline: as §2

[7] = tested on: foxtail, giant (giant foxtail, Setaria faberii); assay: as above
Outline: as §2

[8] = tested on: pigweed (Amaranthus retroflexus); assay: as above
Outline: as §2

[9] = tested on: ragweed (common ragweed, Ambrosia elatior); assay: as above
Outline: as §2

[10] = tested on: kochia (Kochia scoparia); assay: as above
Outline: as §2

[11] = Postemergence, 31 g ai/ha, scale 0 to 100 (0 no effect, 100 complete control)
[12] = Postemergence, 62 g ai/ha, 0 to 100 scale (0 no effect, 100 complete control)
[13] = Postemergence, 125 g ai/ha, scale 0 to 100, 0 is no effect, 100 is complete control
[14] = Postemergence, 250 g ai/ha, scale 0 to 100, 0 no effect, 100 complete control, 13 to 15 d
[15] = Postemergence, 125 g ai/ha, 0 to 100 scale where 0 is no effect and 100 is complete control
[16] = Postemergence, 500 g ai/ha, visual rating after approx. 10 d, 0 to 100 scale (0 no effect, 100 complete control)
[17] = Preemergence, 125 g ai/ha, 0 to 100 scale where 0 is no effect and 100 is complete control
[18] = Preemergence, 500 g ai/ha, 0 to 100 scale where 0 is no effect and 100 is complete control
[19] = 125 g ai/ha, 0 to 100 scale where 0 is no effect and 100 is complete control
[20] = 500 g ai/ha, visual rating after approx. 10 d, 0 to 100 scale (0 no effect, 100 complete control)
[21] = Postemergence, 31 g ai/ha, 0 to 100 scale (0 no effect, 100 complete control)
[22] = postemergence, 62 g ai/ha, scale 0 to 100, 0 no effect, 100 complete control
[23] = Postemergence, 500 g ai/ha, 0 to 100 scale, 0 is no effect, 100 is complete control
[24] = Preemergence, 500 g ai/ha, 0 to 100 scale, 0 no effect, 100 complete control
[25] = Postemergence, 125 g ai/ha, visual rating after approx. 10 d, 0 to 100 scale (0 no effect, 100 complete control)

Cc1nn(C)c(=O)c(-c2cccc3ccc(Br)cc23)c1O [Compound 126]
Plant response rating, Oat, Wild [1, 11]: 60 | Oat, Wild plant response rating [1, 12]: 80 | Plant response rating, Oat, Wild [1, 13]: 90 | Plant response rating, Oat, Wild [1, 14]: 85 | Plant response rating, Chickweed [2, 11]: 90 | Chickweed plant response rating [2, 12]: 90 | Plant response rating, Chickweed [2, 13]: 95 | Plant response rating, Chickweed [2, 14]: 100 | Plant response rating, Kochia [3, 11]: 90 | Kochia plant response rating [3, 12]: 90 | Plant response rating, Kochia [3, 13]: 95 | Plant response rating, Kochia [3, 14]: 95 | Plant response rating, Barnyardgrass [4, 15]: 30 | Plant response rating, Barnyardgrass [4, 16]: 60 | Barnyardgrass plant response rating [4, 17]: 40 | Plant response rating, Barnyardgrass [4, 18]: 80 | Plant response rating, Corn [5, 19]: 0 | Plant response rating, Corn [5, 20]: 20 | Plant response rating, Wheat [6, 19]: 0 | Plant response rating, Wheat [6, 20]: 20 | Plant response rating, Foxtail, Giant [7, 15]: 20 | Plant response rating, Foxtail, Giant [7, 16]: 60 | Foxtail, Giant plant response rating [7, 17]: 10 | Plant response rating, Foxtail, Giant [7, 18]: 70 | Plant response rating, Pigweed [8, 15]: 90 | Plant response rating, Pigweed [8, 16]: 100 | Pigweed plant response rating [8, 17]: 100 | Plant response rating, Pigweed [8, 18]: 100 | Plant response rating, Ragweed [9, 15]: 90 | Plant response rating, Ragweed [9, 16]: 90 | Ragweed plant response rating [9, 17]: 70 | Plant response rating, Ragweed [9, 18]: 80 | Plant response rating, Kochia [10, 15]: 90 | Plant response rating, Kochia [10, 16]: 90 | Kochia plant response rating [10, 17]: 50 | Plant response rating, Kochia [10, 18]: 90

CCC(=O)Oc1c(C)nn(C)c(=O)c1-c1c(C)ccc2ccccc12 [Compound 78]
Oat, Wild plant response rating [1, 21]: 35 | Plant response rating, Oat, Wild [1, 13]: 60 | Plant response rating, Oat, Wild [1, 14]: 60 | Oat, Wild plant response rating [1, 22]: 50 | Chickweed plant response rating [2, 21]: 30 | Plant response rating, Chickweed [2, 13]: 70 | Plant response rating, Chickweed [2, 14]: 80 | Chickweed plant response rating [2, 22]: 60 | Kochia plant response rating [3, 21]: 45 | Plant response rating, Kochia [3, 13]: 85 | Plant response rating, Kochia [3, 14]: 90 | Kochia plant response rating [3, 22]: 70 | Plant response rating, Barnyardgrass [4, 15]: 20 | Barnyardgrass plant response rating [4, 23]: 30 | Barnyardgrass plant response rating [4, 17]: 0 | Plant response rating, Barnyardgrass [4, 24]: 70 | Plant response rating, Corn [5, 19]: 0 | Corn plant response rating ([5]; 500 g ai/ha): 0 | Plant response rating, Wheat [6, 19]: 0 | Wheat plant response rating ([6]; 500 g ai/ha): 60 | Plant response rating, Foxtail, Giant [7, 15]: 20 | Foxtail, Giant plant response rating [7, 23]: 70 | Foxtail, Giant plant response rating [7, 17]: 20 | Plant response rating, Foxtail, Giant [7, 18]: 60 | Plant response rating, Pigweed [8, 15]: 60 | Pigweed plant response rating [8, 23]: 90 | Pigweed plant response rating [8, 17]: 60 | Plant response rating, Pigweed [8, 18]: 100 | Plant response rating, Ragweed [9, 15]: 40 | Ragweed plant response rating [9, 23]: 80 | Ragweed plant response rating [9, 17]: 60 | Plant response rating, Ragweed [9, 18]: 90 | Plant response rating, Kochia [10, 15]: 50 | Kochia plant response rating [10, 23]: 90 | Kochia plant response rating [10, 17]: 20 | Plant response rating, Kochia [10, 18]: 100

COC(=O)Oc1cnn(C)c(=O)c1-c1c(C)sc2ccccc12 [Compound 97]
Plant response rating, Oat, Wild [1, 13]: 5 | Plant response rating, Oat, Wild [1, 14]: 10 | Oat, Wild plant response rating [1, 22]: 5 | Chickweed plant response rating [2, 21]: 0 | Plant response rating, Chickweed [2, 13]: 15 | Plant response rating, Chickweed [2, 14]: 60 | Chickweed plant response rating [2, 22]: 0 | Plant response rating, Kochia [3, 13]: 70 | Plant response rating, Kochia [3, 14]: 85 | Kochia plant response rating [3, 22]: 0 | Plant response rating, Barnyardgrass [4, 15]: 30 | Barnyardgrass plant response rating [4, 23]: 90 | Barnyardgrass plant response rating [4, 17]: 20 | Plant response rating, Barnyardgrass [4, 18]: 100 | Plant response rating, Corn [5, 19]: 10 | Plant response rating, Corn [5, 20]: 70 | Plant response rating, Wheat [6, 19]: 20 | Plant response rating, Wheat [6, 20]: 80 | Plant response rating, Foxtail, Giant [7, 15]: 80 | Plant response rating, Foxtail, Giant [7, 16]: 100 | Foxtail, Giant plant response rating [7, 17]: 60 | Plant response rating, Foxtail, Giant [7, 18]: 100 | Plant response rating, Pigweed [8, 15]: 90 | Plant response rating, Pigweed [8, 16]: 100 | Pigweed plant response rating [8, 17]: 100 | Plant response rating, Pigweed [8, 18]: 100 | Plant response rating, Ragweed [9, 15]: 90 | Plant response rating, Ragweed [9, 16]: 100 | Ragweed plant response rating [9, 17]: 90 | Plant response rating, Ragweed [9, 18]: 100 | Plant response rating, Kochia [10, 15]: 90 | Plant response rating, Kochia [10, 16]: 100 | Kochia plant response rating [10, 17]: 80 | Plant response rating, Kochia [10, 18]: 100

Cc1nn(C)c(=O)c(-c2c(C)sc3ccc(C(F)(F)F)cc23)c1O [Compound 121]
Plant response rating, Oat, Wild [1, 11]: 65 | Plant response rating, Oat, Wild [1, 13]: 80 | Plant response rating, Oat, Wild [1, 14]: 90 | Plant response rating, Chickweed [2, 11]: 90 | Plant response rating, Chickweed [2, 13]: 90 | Plant response rating, Chickweed [2, 14]: 98 | Chickweed plant response rating [2, 22]: 90 | Plant response rating, Kochia [3, 11]: 90 | Plant response rating, Kochia [3, 13]: 95 | Plant response rating, Kochia [3, 14]: 95 | Plant response rating, Barnyardgrass [4, 15]: 30 | Plant response rating, Barnyardgrass [4, 16]: 50 | Barnyardgrass plant response rating [4, 17]: 20 | Plant response rating, Barnyardgrass [4, 18]: 50 | Plant response rating, Corn [5, 19]: 20 | Plant response rating, Corn [5, 20]: 20 | Plant response rating, Wheat [6, 19]: 0 | Plant response rating, Wheat [6, 20]: 20 | Plant response rating, Foxtail, Giant [7, 15]: 60 | Plant response rating, Foxtail, Giant [7, 16]: 80 | Foxtail, Giant plant response rating [7, 17]: 80 | Plant response rating, Foxtail, Giant [7, 18]: 80 | Plant response rating, Pigweed [8, 15]: 90 | Plant response rating, Pigweed [8, 16]: 90 | Pigweed plant response rating [8, 17]: 100 | Plant response rating, Pigweed [8, 18]: 100 | Plant response rating, Ragweed [9, 15]: 90 | Plant response rating, Ragweed [9, 16]: 90 | Ragweed plant response rating [9, 17]: 60 | Plant response rating, Ragweed [9, 18]: 80 | Plant response rating, Kochia [10, 15]: 70 | Plant response rating, Kochia [10, 16]: 80 | Kochia plant response rating [10, 17]: 0 | Plant response rating, Kochia [10, 18]: 30

Cc1cc2ccccc2c(-c2c(O)c(C)nn(C)c2=O)c1C [Compound 34]
Oat, Wild plant response rating [1, 21]: 80 | Plant response rating, Oat, Wild [1, 13]: 90 | Plant response rating, Oat, Wild [1, 14]: 90 | Oat, Wild plant response rating [1, 22]: 85 | Chickweed plant response rating [2, 21]: 90 | Plant response rating, Chickweed [2, 13]: 90 | Plant response rating, Chickweed [2, 14]: 95 | Chickweed plant response rating [2, 22]: 90 | Kochia plant response rating [3, 21]: 10 | Plant response rating, Kochia [3, 13]: 60 | Plant response rating, Kochia [3, 14]: 85 | Kochia plant response rating [3, 22]: 45 | Plant response rating, Barnyardgrass [4, 25]: 30 | Barnyardgrass plant response rating [4, 23]: 90 | Barnyardgrass plant response rating [4, 17]: 20 | Plant response rating, Barnyardgrass [4, 24]: 80 | Plant response rating, Corn ([5]; 125 g ai/ha, visual rating after approx. 10 d, 0 to 100 scale (0 no effect, 100 complete control)): 0 | Corn plant response rating ([5]; 500 g ai/ha): 0 | Plant response rating, Wheat [6, 19]: 20 | Wheat plant response rating ([6]; 500 g ai/ha): 40 | Plant response rating, Foxtail, Giant [7, 25]: 30 | Foxtail, Giant plant response rating [7, 23]: 90 | Foxtail, Giant plant response rating [7, 17]: 40 | Plant response rating, Foxtail, Giant [7, 24]: 90 | Plant response rating, Pigweed [8, 25]: 90 | Pigweed plant response rating [8, 23]: 90 | Pigweed plant response rating [8, 17]: 90 | Plant response rating, Pigweed [8, 24]: 100 | Plant response rating, Ragweed [9, 25]: 90 | Ragweed plant response rating [9, 23]: 100 | Ragweed plant response rating [9, 17]: 80 | Plant response rating, Ragweed [9, 24]: 90 | Plant response rating, Kochia [10, 25]: 70 | Kochia plant response rating [10, 23]: 80 | Kochia plant response rating [10, 17]: 30 | Plant response rating, Kochia [10, 24]: 60
